Laboratory results: patent publication US20240381872A1, “SUBSTITUTED 2,3-DIHYDRO[1,3]THIAZOLO[4,5-B]PYRIDINES, SALTS THEREOF AND THEIR USE AS HERBICIDALLY ACTIVE SUBSTANCES” (BAYER AKTIENGESELLSCHAFT, priority 2021, published 2024)

What was measured:
Assay type in all cases: in vivo
[1] = tested on: Echinochloa crus-galli (ECHCG); experiment: Herbicidal pre-emergence action, section A (Table A3); conditions: visual grading after ca. 3 weeks vs untreated controls; for pre-emergence activity against ECHCG in %: application rate 1280 g/ha
Excerpt: (§1) Seeds of mono- and dicotyledonous weed plants were sown in plastic pots (double sowings with one species of mono- and one species of dicotyledonous weed plants per pot), in sandy loam, and covered with soil. The compounds according to the invention, formulated in the form of wettable powders (WP) or as emulsifiable concentrates (EC), were applied to the surface of the covering soil as aqueous suspension or emulsion, with the addition of 0.5% of an additive, at an application rate of 600 l of water per hectare (converted). Following treatment, the pots were placed in a greenhouse and kept under optimum growth conditions for the test plants. The visual grading of the damage to the test plants was carried out after ca. 3 weeks in comparison to untreated controls (herbicidal effect in percent (%): 100% effect=plants have died off, 0% effect=as control plants).

Kochia scoparia (KCHSC) [2] = experiment: Herbicidal pre-emergence action, section A (Table A4); conditions: visual grading after ca. 3 weeks vs untreated controls
Excerpt: as §1

[3] = tested on: Matricaria inodora (MATIN); experiment: Herbicidal pre-emergence action, section A (Table A6); conditions: visual grading after ca. 3 weeks vs untreated controls
Excerpt: as §1

Poa annua (POAAN) = experiment: Herbicidal pre-emergence action, section A (Table A7); conditions: visual grading after ca. 3 weeks vs untreated controls
Excerpt: as §1

Setaria viridis (SETVI) [4] = experiment: Herbicidal pre-emergence action, section A (Table A8)
Excerpt: as §1

[5] = tested on: Echinochloa crus-galli (ECHCG); experiment: Herbicidal post-emergence action, section B (Table B3); conditions: rated visually after about 3 weeks
Experimental: (§2) Seeds of mono- and dicotyledonous weed plants were placed in plastic pots in sandy loam soil (doubly sown with in each case one species of mono- or dicotyledonous weed plants per pot), covered with soil and cultivated in a greenhouse under controlled growth conditions. 2 to 3 weeks after sowing, the test plants were treated at the one-leaf stage. The compounds of the invention, formulated in the form of wettable powders (WP) or as emulsion concentrates (EC), were applied onto the green parts of the plants as aqueous suspension or emulsion with addition of 0.5% additive at a water application rate of 600 liters per hectare (converted). After the test plants had been kept in the greenhouse under optimum growth conditions for about 3 weeks, the activity of the preparations was rated visually in comparison to untreated controls. For example, 100% activity=the plants have died, 0% activity=like control plants.

Kochia scoparia (KCHSC) [6] = experiment: Herbicidal post-emergence action, section B (Table B4); conditions: application rate 1280 g/ha; visual rating about 3 weeks after treatment vs untreated controls
Experimental: as §2

Veronica persica (VERPE) [7] = experiment: Herbicidal post-emergence action, section B (Table B10); conditions: application rate 1280 g/ha; visual rating about 3 weeks after treatment vs untreated controls
Experimental: as §2

[8] = tested on: Amaranthus retroflexus (AMARE); experiment: Herbicidal post-emergence action, section B (Table B11); conditions: application rate 1280 g/ha, visual rating about 3 weeks after treatment vs untreated controls
Experimental: as §2

Stellaria media (STEME) [9] = experiment: Herbicidal pre-emergence action, section A (Table A9)
Excerpt: as §1

Veronica persica (VERPE) [10] = experiment: Herbicidal pre-emergence action, section A (Table A10)
Excerpt: as §1

[11] = tested on: Amaranthus retroflexus (AMARE); experiment: Herbicidal pre-emergence action, section A (Table A11)
Excerpt: as §1

[12] = tested on: Alopecurus myosuroides (ALOMY); experiment: Herbicidal pre-emergence action, section A (Table A2); conditions: application rate 1280 g/ha; visual grading after ca. 3 weeks vs untreated controls
Excerpt: as §1

Lolium rigidum (LOLRI) = experiment: Herbicidal pre-emergence action, section A (Table A5); conditions: visual grading after ca. 3 weeks vs untreated controls
Excerpt: as §1

[13] = tested on: Digitaria sanguinalis (DIGSA); experiment: Herbicidal pre-emergence action, section A (Table A12)
Excerpt: as §1

Stellaria media (STEME) [14] = experiment: Herbicidal post-emergence action, section B (Table B9); conditions: application rate 1280 g/ha, visual rating about 3 weeks after treatment vs untreated controls
Experimental: as §2

Setaria viridis (SETVI) [15] = experiment: Herbicidal post-emergence action, section B (Table B8); conditions: application rate 1280 g/ha, visual rating about 3 weeks after treatment vs untreated controls
Experimental: as §2

With `CCOC(=O)c1cc2c(nc1-c1ccccc1F)NCS2` [Example I-004] the “pre-emergence activity against ECHCG in %” value [1] was 100%, the “pre-emergence activity against KCHSC in %” value (Kochia scoparia (KCHSC) [2]; application rate 1280 g/ha) was 90% and the “pre-emergence activity against MATIN in %” value ([3]; application rate 1280 g/ha) was 90%. For the same compound, the “pre-emergence activity against POAAN in %” value (Poa annua (POAAN); application rate 1280 g/ha) was 100%, the “pre-emergence activity against SETVI in %” value (Setaria viridis (SETVI) [4]; application rate 1280 g/ha) was 100% and the “post-emergence activity against ECHCG in %” value ([5]; application rate 1280 g/ha) was 90%. For the same compound, the “post-emergence activity against KCHSC in %” value (Kochia scoparia (KCHSC) [6]) was 90%, the “post-emergence activity against VERPE in %” value (Veronica persica (VERPE) [7]) was 90% and the “post-emergence activity against AMARE in %” value [8] was 100%.

With `CCCS(=O)(=O)N1CSc2cc(C)c(-c3cccc(Cl)c3F)nc21` [Example I-112] the “pre-emergence activity against POAAN in %” value (Poa annua (POAAN); application rate 1280 g/ha) was 100%, the “pre-emergence activity against SETVI in %” value (Setaria viridis (SETVI) [4]; application rate 1280 g/ha) was 90% and the “pre-emergence activity against STEME in %” value (Stellaria media (STEME) [9]; application rate 1280 g/ha) was 90%. The “pre-emergence activity against VERPE in %” value (Veronica persica (VERPE) [10]; application rate 1280 g/ha) was 90%, the “pre-emergence activity against AMARE in %” value ([11]; application rate 1280 g/ha) was 90% and the “post-emergence activity against ECHCG in %” value ([5]; application rate 320 g/ha) was 100%.

For `CS(=O)(=O)N1CSc2cc(Br)c(-c3cccc(Cl)c3F)nc21` [Example I-116], the “pre-emergence activity against ALOMY in %” value [12] was 90%, the “pre-emergence activity against SETVI in %” value (Setaria viridis (SETVI) [4]; application rate 1280 g/ha) was 90% and the “pre-emergence activity against VERPE in %” value (Veronica persica (VERPE) [10]; application rate 1280 g/ha) was 90%. The “post-emergence activity against KCHSC in %” value (Kochia scoparia (KCHSC) [6]) was 90%.

In the case of `CCCS(=O)(=O)N1CSc2cc(C)c(-c3cccc(F)c3F)nc21` [Example I-145], the “pre-emergence activity against ALOMY in %” value [12] is reported as 90%, the “pre-emergence activity against ECHCG in %” value [1] is reported as 100% and the “pre-emergence activity against KCHSC in %” value (Kochia scoparia (KCHSC) [2]; application rate 320 g/ha) is reported as 90%. For the same compound, the “pre-emergence activity against LOLRI in %” value (Lolium rigidum (LOLRI); application rate 1280 g/ha) was 100%, the “pre-emergence activity against MATIN in %” value ([3]; application rate 1280 g/ha) was 90% and the “pre-emergence activity against POAAN in %” value (Poa annua (POAAN); application rate 320 g/ha) was 100%. The “pre-emergence activity against SETVI in %” value (Setaria viridis (SETVI) [4]; application rate 1280 g/ha) was 100%, the “pre-emergence activity against STEME in %” value (Stellaria media (STEME) [9]; application rate 320 g/ha) was 90% and the “pre-emergence activity against VERPE in %” value (Veronica persica (VERPE) [10]; application rate 1280 g/ha) was 90%. The “pre-emergence activity against AMARE in %” value ([11]; application rate 1280 g/ha) was 90%, the “pre-emergence activity against DIGSA in %” value ([13]; application rate 1280 g/ha) was 100% and the “post-emergence activity against ECHCG in %” value ([5]; application rate 1280 g/ha) was 90%. For the same compound, the “post-emergence activity against STEME in %” value (Stellaria media (STEME) [14]) was 90%.

`Cc1cc2c(nc1-c1cccc(F)c1F)N(S(C)(=O)=O)CS2` [Example I-147, 5-(2,3-difluorophenyl)-6-methyl-3-(methylsulfonyl)-2,3-dihydro[1,3]thiazolo[4,5-b]pyridine] gave a pest or weed control at 320 g/ha ([1]; Echinochloa crus-galli, pre-emergence, 504 h, application rate 320 g/ha, read-out: pre-emergence activity against ECHCG in %) of 100%, a pest or weed control at 320 g/ha (Kochia scoparia (KCHSC) [2]; Bassia scoparia, pre-emergence, 504 h, application rate 320 g/ha, read-out: pre-emergence activity against KCHSC in %) of 90% and a pest or weed control at 1280 g/ha (Lolium rigidum (LOLRI); Lolium rigidum, pre-emergence, 504 h, application rate 1280 g/ha, read-out: pre-emergence activity against LOLRI in %) of 90%. It also gave a pest or weed control at 1280 g/ha ([3]; Tripleurospermum inodorum, pre-emergence, 504 h, application rate 1280 g/ha, read-out: pre-emergence activity against MATIN in %) of 90%, a pest or weed control at 320 g/ha (Poa annua (POAAN); Poa annua, pre-emergence, 504 h, application rate 320 g/ha, read-out: pre-emergence activity against POAAN in %) of 100% and a pest or weed control at 320 g/ha (Setaria viridis (SETVI) [4]; Setaria viridis, 504 h, application rate 320 g/ha, read-out: pre-emergence activity against SETVI in %) of 100%. It also gave a pest or weed control at 1280 g/ha (Stellaria media (STEME) [9]; Stellaria media, 504 h, application rate 1280 g/ha, read-out: pre-emergence activity against STEME in %) of 90%, a pest or weed control at 320 g/ha (Veronica persica (VERPE) [10]; Veronica persica, 504 h, application rate 320 g/ha, read-out: pre-emergence activity against VERPE in %) of 90% and a pest or weed control at 320 g/ha ([11]; Amaranthus retroflexus, 504 h, application rate 320 g/ha, read-out: pre-emergence activity against AMARE in %) of 90%. The pest or weed control at 320 g/ha ([13]; Digitaria sanguinalis, 504 h, application rate 320 g/ha, read-out: pre-emergence activity against DIGSA in %) was 90%, the pest or weed control at 1280 g/ha (Setaria viridis (SETVI) [15]; Setaria viridis, post-emergence, 504 h, read-out: post-emergence activity against SETVI in %) was 90% and the pest or weed control at 1280 g/ha (Stellaria media (STEME) [14]; Stellaria media, post-emergence, 504 h, read-out: post-emergence activity against STEME in %) was 90%. It also gave a pest or weed control at 1280 g/ha ([8]; Amaranthus retroflexus, post-emergence, 504 h, read-out: post-emergence activity against AMARE in %) of 90%.

`COC(=O)CCC(=O)N1CSc2cc(C)c(-c3cccc(F)c3F)nc21` [Example I-153] was tested, and the “pre-emergence activity against ECHCG in %” value [1] was 90%, the “pre-emergence activity against KCHSC in %” value (Kochia scoparia (KCHSC) [2]; application rate 320 g/ha) was 90% and the “pre-emergence activity against LOLRI in %” value (Lolium rigidum (LOLRI); application rate 320 g/ha) was 90%. The “pre-emergence activity against MATIN in %” value ([3]; application rate 1280 g/ha) was 90%, the “pre-emergence activity against POAAN in %” value (Poa annua (POAAN); application rate 1280 g/ha) was 100% and the “pre-emergence activity against SETVI in %” value (Setaria viridis (SETVI) [4]; application rate 1280 g/ha) was 100%. The “pre-emergence activity against STEME in %” value (Stellaria media (STEME) [9]; application rate 320 g/ha) was 90%, the “pre-emergence activity against VERPE in %” value (Veronica persica (VERPE) [10]; application rate 1280 g/ha) was 90% and the “pre-emergence activity against AMARE in %” value ([11]; application rate 320 g/ha) was 90%. For the same compound, the “pre-emergence activity against DIGSA in %” value ([13]; application rate 320 g/ha) was 90%, the “post-emergence activity against SETVI in %” value (Setaria viridis (SETVI) [15]) was 90% and the “post-emergence activity against STEME in %” value (Stellaria media (STEME) [14]) was 90%.

In the case of `CC(=O)N1CSc2cc(C)c(-c3cc(F)ccc3F)nc21` [Example I-168], the “pre-emergence activity against ALOMY in %” value [12] is reported as 90%, the “pre-emergence activity against ECHCG in %” value [1] is reported as 100% and the “pre-emergence activity against KCHSC in %” value (Kochia scoparia (KCHSC) [2]; application rate 320 g/ha) is reported as 90%. For the same compound, the “pre-emergence activity against LOLRI in %” value (Lolium rigidum (LOLRI); application rate 320 g/ha) was 90%, the “pre-emergence activity against MATIN in %” value ([3]; application rate 320 g/ha) was 90% and the “pre-emergence activity against POAAN in %” value (Poa annua (POAAN); application rate 320 g/ha) was 100%. For the same compound, the “pre-emergence activity against SETVI in %” value (Setaria viridis (SETVI) [4]; application rate 320 g/ha) was 100%, the “pre-emergence activity against STEME in %” value (Stellaria media (STEME) [9]; application rate 320 g/ha) was 90% and the “pre-emergence activity against VERPE in %” value (Veronica persica (VERPE) [10]; application rate 320 g/ha) was 90%. For the same compound, the “pre-emergence activity against AMARE in %” value ([11]; application rate 320 g/ha) was 90%, the “pre-emergence activity against DIGSA in %” value ([13]; application rate 320 g/ha) was 100% and the “post-emergence activity against KCHSC in %” value (Kochia scoparia (KCHSC) [6]) was 90%. For the same compound, the “post-emergence activity against VERPE in %” value (Veronica persica (VERPE) [7]) was 90%.
